How the values were obtained:
Experiment in all cases: relative viability (nuclei count vs DMSO), 5 days (fraction); higher = more cells survive
[1] = tested on: ABC-1
Summary of the method: (§1)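 Nuclei were stained with Hoechst during a one-step fixation (final 0.05% Triton X-100, 1% formaldehyde, 1 ug/ml Hoechst) carried out 5 days after dosing, then counted on 4× images. The cells, lung cancer lines in 1536-well plates, had been dosed by pin tool the day after seeding with one drug alone or a fixed anchor-drug dose plus five library-drug doses (not always all listed) in √10 steps. Relative viability is the nuclei count in treated wells divided by that in vehicle wells, and each value is the median of duplicate plates.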

[2] = tested on: CAL-12T
Summary of the method: as §1

[3] = tested on: COR-L 105
Summary of the method: as §1

[4] = tested on: ChaGo-K-1
Summary of the method: as §1

[5] = tested on: EMC-BAC-2
Summary of the method: as §1

[6] = tested on: EPLC-272H
Summary of the method: as §1

[7] = tested on: HCC-15
Summary of the method: as §1

[8] = tested on: HCC-78
Summary of the method: as §1

[9] = tested on: HOP-62
Summary of the method: as §1

[10] = tested on: LXF-289
Summary of the method: as §1

[11] = tested on: NCI-H1666
Summary of the method: as §1

[12] = tested on: NCI-H1755
Summary of the method: as §1

[13] = tested on: NCI-H1915
Summary of the method: as §1

[14] = tested on: NCI-H1975
Summary of the method: as §1

[15] = tested on: NCI-H1993
Summary of the method: as §1

[16] = tested on: NCI-H2023
Summary of the method: as §1

[17] = tested on: NCI-H2085
Summary of the method: as §1

[18] = tested on: NCI-H2126
Summary of the method: as §1

[19] = tested on: NCI-H3122
Summary of the method: as §1

[20] = tested on: NCI-H322M
Summary of the method: as §1

[21] = tested on: NCI-H358
Summary of the method: as §1

[22] = tested on: NCI-H441
Summary of the method: as §1

[23] = tested on: UMC-11
Summary of the method: as §1

O=C(O)c1ccc(-c2c[nH]c3ncc(-c4ccccc4)cc23)cc1C1CCCC1 + COc1cc2c(Oc3ccc(NC(=O)C4(C(=O)Nc5ccc(F)cc5)CC4)cc3F)ccnc2cc1OCCCN1CCOCC1 [Foretinib] (partner 0.25 µM)
relative viability ([1]; first compound 0.04 µM): 1.02
relative viability ([1]; first compound 0.1265 µM): 1.24
relative viability ([1]; first compound 0.4 µM): 1.04
relative viability ([1]; first compound 1.265 µM): 0.936
relative viability ([2]; first compound 0.04 µM): 1.22
relative viability ([2]; first compound 0.1265 µM): 1.07
relative viability ([2]; first compound 0.4 µM): 1.13
relative viability ([2]; first compound 1.265 µM): 0.997
relative viability ([3]; first compound 0.04 µM): 1.1
relative viability ([3]; first compound 0.1265 µM): 1.43
relative viability ([3]; first compound 0.4 µM): 0.886
relative viability ([3]; first compound 1.265 µM): 1.22
relative viability ([4]; first compound 0.04 µM): 0.995
relative viability ([4]; first compound 0.1265 µM): 0.928
relative viability ([4]; first compound 0.4 µM): 0.833
relative viability ([4]; first compound 1.265 µM): 0.863
relative viability ([5]; first compound 0.04 µM): 0.997
relative viability ([5]; first compound 0.1265 µM): 1.08
relative viability ([5]; first compound 0.4 µM): 0.97
relative viability ([5]; first compound 1.265 µM): 0.857
relative viability ([6]; first compound 0.04 µM): 0.694
relative viability ([6]; first compound 0.1265 µM): 0.752
relative viability ([6]; first compound 0.4 µM): 0.585
relative viability ([6]; first compound 1.265 µM): 0.187
relative viability ([7]; first compound 0.04 µM): 1.11
relative viability ([7]; first compound 0.1265 µM): 1.04
relative viability ([7]; first compound 0.4 µM): 0.92
relative viability ([7]; first compound 1.265 µM): 0.678
relative viability ([8]; first compound 0.1265 µM): 0.584
relative viability ([8]; first compound 0.4 µM): 0.524
relative viability ([8]; first compound 1.265 µM): 0.531
relative viability ([9]; first compound 0.04 µM): 1.09
relative viability ([9]; first compound 0.1265 µM): 1.21
relative viability ([9]; first compound 0.4 µM): 1.01
relative viability ([9]; first compound 1.265 µM): 0.815
relative viability ([10]; first compound 0.04 µM): 0.972
relative viability ([10]; first compound 0.1265 µM): 0.939
relative viability ([10]; first compound 0.4 µM): 0.867
relative viability ([10]; first compound 1.265 µM): 0.543
relative viability ([11]; first compound 0.04 µM): 0.961
relative viability ([11]; first compound 0.1265 µM): 0.959
relative viability ([11]; first compound 0.4 µM): 0.921
relative viability ([11]; first compound 1.265 µM): 0.441
relative viability ([12]; first compound 0.04 µM): 0.913
relative viability ([12]; first compound 0.1265 µM): 1.02
relative viability ([12]; first compound 0.4 µM): 0.939
relative viability ([12]; first compound 1.265 µM): 0.861
relative viability ([13]; first compound 0.04 µM): 1.13
relative viability ([13]; first compound 0.1265 µM): 1.11
relative viability ([13]; first compound 0.4 µM): 1.03
relative viability ([13]; first compound 1.265 µM): 0.783
relative viability ([14]; first compound 0.04 µM): 0.964
relative viability ([14]; first compound 0.1265 µM): 0.941
relative viability ([14]; first compound 0.4 µM): 0.985
relative viability ([14]; first compound 1.265 µM): 0.883
relative viability ([15]; first compound 0.04 µM): 0.788
relative viability ([15]; first compound 0.1265 µM): 0.834
relative viability ([15]; first compound 0.4 µM): 0.759
relative viability ([15]; first compound 1.265 µM): 0.805
relative viability ([16]; first compound 0.04 µM): 0.988
relative viability ([16]; first compound 0.1265 µM): 1
relative viability ([16]; first compound 0.4 µM): 0.895
relative viability ([16]; first compound 1.265 µM): 0.749
relative viability ([17]; first compound 0.04 µM): 1.14
relative viability ([17]; first compound 0.1265 µM): 0.988
relative viability ([17]; first compound 0.4 µM): 0.845
relative viability ([17]; first compound 1.265 µM): 0.56
relative viability ([18]; first compound 0.04 µM): 1.25
relative viability ([18]; first compound 0.1265 µM): 1.12
relative viability ([18]; first compound 0.4 µM): 1.16
relative viability ([18]; first compound 1.265 µM): 1.2
relative viability ([19]; first compound 0.04 µM): 0.968
relative viability ([19]; first compound 0.1265 µM): 0.913
relative viability ([19]; first compound 0.4 µM): 0.891
relative viability ([19]; first compound 1.265 µM): 0.87
relative viability ([20]; first compound 0.04 µM): 1.02
relative viability ([20]; first compound 0.1265 µM): 1.03
relative viability ([20]; first compound 0.4 µM): 0.993
relative viability ([20]; first compound 1.265 µM): 0.824
relative viability ([21]; first compound 0.04 µM): 0.768
relative viability ([21]; first compound 0.1265 µM): 0.949
relative viability ([21]; first compound 0.4 µM): 0.619
relative viability ([21]; first compound 1.265 µM): 0.397
relative viability ([22]; first compound 0.04 µM): 1.14
relative viability ([22]; first compound 0.1265 µM): 0.881
relative viability ([22]; first compound 0.4 µM): 0.897
relative viability ([22]; first compound 1.265 µM): 0.563
relative viability ([23]; first compound 0.04 µM): 1.01
relative viability ([23]; first compound 0.1265 µM): 1.02
relative viability ([23]; first compound 0.4 µM): 0.982
relative viability ([23]; first compound 1.265 µM): 0.77

O=C(O)c1ccc(-c2c[nH]c3ncc(-c4ccccc4)cc23)cc1C1CCCC1 + COc1cccc2cc(-c3nc([C@H]4CC[C@H](C(=O)O)CC4)n4ncnc(N)c34)[nH]c12 [OSI-027] (partner 0.5 µM)
relative viability ([1]; first compound 0.04 µM): 0.468
relative viability ([1]; first compound 0.1265 µM): 0.511
relative viability ([1]; first compound 0.4 µM): 0.418
relative viability ([1]; first compound 1.265 µM): 0.568
relative viability ([2]; first compound 0.04 µM): 0.63
relative viability ([2]; first compound 0.1265 µM): 0.751
relative viability ([2]; first compound 0.4 µM): 0.671
relative viability ([2]; first compound 1.265 µM): 0.547
relative viability ([3]; first compound 0.04 µM): 0.635
relative viability ([3]; first compound 0.1265 µM): 0.673
relative viability ([3]; first compound 0.4 µM): 0.757
relative viability ([3]; first compound 1.265 µM): 0.838
relative viability ([4]; first compound 0.04 µM): 0.651
relative viability ([4]; first compound 0.1265 µM): 0.595
relative viability ([4]; first compound 0.4 µM): 0.532
relative viability ([4]; first compound 1.265 µM): 0.51
relative viability ([5]; first compound 0.04 µM): 0.401
relative viability ([5]; first compound 0.1265 µM): 0.388
relative viability ([5]; first compound 0.4 µM): 0.39
relative viability ([5]; first compound 1.265 µM): 0.365
relative viability ([6]; first compound 0.04 µM): 0.266
relative viability ([6]; first compound 0.1265 µM): 0.283
relative viability ([6]; first compound 0.4 µM): 0.292
relative viability ([6]; first compound 1.265 µM): 0.281
relative viability ([7]; first compound 0.04 µM): 0.807
relative viability ([7]; first compound 0.1265 µM): 0.813
relative viability ([7]; first compound 0.4 µM): 0.633
relative viability ([7]; first compound 1.265 µM): 0.399
relative viability ([8]; first compound 0.1265 µM): 0.396
relative viability ([8]; first compound 0.4 µM): 0.386
relative viability ([8]; first compound 1.265 µM): 0.327
relative viability ([9]; first compound 0.04 µM): 0.899
relative viability ([9]; first compound 0.1265 µM): 0.859
relative viability ([9]; first compound 0.4 µM): 0.707
relative viability ([9]; first compound 1.265 µM): 0.805
relative viability ([10]; first compound 0.04 µM): 0.848
relative viability ([10]; first compound 0.1265 µM): 0.879
relative viability ([10]; first compound 0.4 µM): 0.764
relative viability ([10]; first compound 1.265 µM): 0.581
relative viability ([11]; first compound 0.04 µM): 0.846
relative viability ([11]; first compound 0.1265 µM): 0.884
relative viability ([11]; first compound 0.4 µM): 0.906
relative viability ([11]; first compound 1.265 µM): 0.624
relative viability ([12]; first compound 0.04 µM): 0.748
relative viability ([12]; first compound 0.1265 µM): 0.814
relative viability ([12]; first compound 0.4 µM): 0.724
relative viability ([12]; first compound 1.265 µM): 0.673
relative viability ([13]; first compound 0.04 µM): 0.629
relative viability ([13]; first compound 0.1265 µM): 0.638
relative viability ([13]; first compound 0.4 µM): 0.604
relative viability ([13]; first compound 1.265 µM): 0.545
relative viability ([14]; first compound 0.04 µM): 0.7
relative viability ([14]; first compound 0.1265 µM): 0.871
relative viability ([14]; first compound 0.4 µM): 0.648
relative viability ([14]; first compound 1.265 µM): 0.629
relative viability ([15]; first compound 0.04 µM): 0.521
relative viability ([15]; first compound 0.1265 µM): 0.55
relative viability ([15]; first compound 0.4 µM): 0.568
relative viability ([15]; first compound 1.265 µM): 0.586
relative viability ([16]; first compound 0.04 µM): 0.516
relative viability ([16]; first compound 0.1265 µM): 0.572
relative viability ([16]; first compound 0.4 µM): 0.41
relative viability ([16]; first compound 1.265 µM): 0.319
relative viability ([17]; first compound 0.04 µM): 0.867
relative viability ([17]; first compound 0.1265 µM): 0.761
relative viability ([17]; first compound 0.4 µM): 0.73
relative viability ([17]; first compound 1.265 µM): 0.554
relative viability ([18]; first compound 0.04 µM): 0.749
relative viability ([18]; first compound 0.1265 µM): 0.732
relative viability ([18]; first compound 0.4 µM): 0.827
relative viability ([18]; first compound 1.265 µM): 0.618
relative viability ([19]; first compound 0.04 µM): 0.973
relative viability ([19]; first compound 0.1265 µM): 1.12
relative viability ([19]; first compound 0.4 µM): 0.922
relative viability ([19]; first compound 1.265 µM): 0.717
relative viability ([20]; first compound 0.04 µM): 0.546
relative viability ([20]; first compound 0.1265 µM): 0.588
relative viability ([20]; first compound 0.4 µM): 0.674
relative viability ([20]; first compound 1.265 µM): 0.521
relative viability ([21]; first compound 0.04 µM): 0.807
relative viability ([21]; first compound 0.1265 µM): 0.933
relative viability ([21]; first compound 0.4 µM): 0.727
relative viability ([21]; first compound 1.265 µM): 0.359
relative viability ([22]; first compound 0.04 µM): 0.675
relative viability ([22]; first compound 0.1265 µM): 0.567
relative viability ([22]; first compound 0.4 µM): 0.571
relative viability ([22]; first compound 1.265 µM): 0.466
relative viability ([23]; first compound 0.04 µM): 0.482
relative viability ([23]; first compound 0.1265 µM): 0.547
relative viability ([23]; first compound 0.4 µM): 0.46
relative viability ([23]; first compound 1.265 µM): 0.375

— the supplement of paper PMC10307832
